ChEMBL document CHEMBL1139626, “Total asymmetric synthesis of (-)-conduramine B-1 and of its enantiomer. N-Benzyl derivatives of conduramine B-1 are beta-glucosidase inhibitors” (Bioorg Med Chem Lett, 2005)
Activity calls are given as the source filed them. No cut-off for these calls is given here.

What was measured:
[1] = biological target: T1, Glucoamylase 1 (Rhizopus oryzae) (UniProt P07683); assay: Inhibition against Amyloglucosidase from Rhizopus mold at 1 mM; (ni=no inhibition)
T1 sequence (whole entry): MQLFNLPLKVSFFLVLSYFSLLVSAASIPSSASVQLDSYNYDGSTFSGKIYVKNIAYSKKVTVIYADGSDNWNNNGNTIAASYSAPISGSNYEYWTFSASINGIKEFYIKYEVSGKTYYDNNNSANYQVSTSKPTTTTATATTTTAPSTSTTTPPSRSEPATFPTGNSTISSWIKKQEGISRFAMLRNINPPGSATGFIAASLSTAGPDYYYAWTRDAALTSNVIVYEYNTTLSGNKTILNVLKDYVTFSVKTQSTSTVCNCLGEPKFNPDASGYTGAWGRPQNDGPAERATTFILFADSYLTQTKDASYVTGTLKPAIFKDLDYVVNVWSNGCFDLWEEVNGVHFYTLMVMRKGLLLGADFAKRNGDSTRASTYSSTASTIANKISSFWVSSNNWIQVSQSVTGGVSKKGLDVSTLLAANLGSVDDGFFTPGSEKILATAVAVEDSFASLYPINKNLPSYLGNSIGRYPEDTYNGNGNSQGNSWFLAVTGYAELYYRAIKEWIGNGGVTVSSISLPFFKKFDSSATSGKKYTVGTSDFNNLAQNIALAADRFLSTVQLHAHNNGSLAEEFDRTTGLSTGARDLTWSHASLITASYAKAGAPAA

[2] = Inhibition against Alpha Glucosidase from yeast at 1 mM; (ni=no inhibition)
[3] = biological target: T2, Exo-1,4-beta-xylosidase xlnD (Aspergillus niger) (UniProt O00089); assay: Inhibition against Beta-xylosidase from Aspergillus niger at 1 mM; (ni=no inhibition)
T2 sequence (whole entry): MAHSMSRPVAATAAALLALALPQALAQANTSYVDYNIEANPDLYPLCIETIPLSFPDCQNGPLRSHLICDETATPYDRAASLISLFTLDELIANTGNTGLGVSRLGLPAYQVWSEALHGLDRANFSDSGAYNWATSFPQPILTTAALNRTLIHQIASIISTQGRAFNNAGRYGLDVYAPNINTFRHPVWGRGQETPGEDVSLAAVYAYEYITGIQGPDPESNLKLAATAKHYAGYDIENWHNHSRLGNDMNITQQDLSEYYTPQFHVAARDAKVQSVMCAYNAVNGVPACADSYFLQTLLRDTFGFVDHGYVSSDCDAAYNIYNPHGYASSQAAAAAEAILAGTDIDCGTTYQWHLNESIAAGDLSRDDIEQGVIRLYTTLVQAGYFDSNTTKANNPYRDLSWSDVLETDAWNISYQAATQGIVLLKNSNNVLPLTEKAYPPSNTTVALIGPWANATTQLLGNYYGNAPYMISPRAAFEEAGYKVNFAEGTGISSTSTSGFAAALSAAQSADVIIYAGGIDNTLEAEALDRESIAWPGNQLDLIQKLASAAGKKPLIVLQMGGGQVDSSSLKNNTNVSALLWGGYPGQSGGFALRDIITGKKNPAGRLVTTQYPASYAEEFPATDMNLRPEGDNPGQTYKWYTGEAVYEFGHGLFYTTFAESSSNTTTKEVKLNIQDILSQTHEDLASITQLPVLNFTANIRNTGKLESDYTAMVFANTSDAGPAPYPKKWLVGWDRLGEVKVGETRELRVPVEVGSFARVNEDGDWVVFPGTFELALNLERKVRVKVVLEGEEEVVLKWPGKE

[4] = biological target: Glucoamylase (Aspergillus niger) (UniProt P69328); assay: Inhibition against Amyloglucosidase from Aspergillus niger at 1 mM; (ni=no inhibition)
[5] = Inhibitory concentration against Beta Glucosidase from Almonds; design: species or system Prunus dulcis
[6] = biological target: T3, Alpha-glucosidase (Oryza sativa Japonica Group) (UniProt Q9LGC6); assay: Inhibition against Alpha Glucosidase from rice at 1 mM; (ni=no inhibition)
T3 sequence (whole entry): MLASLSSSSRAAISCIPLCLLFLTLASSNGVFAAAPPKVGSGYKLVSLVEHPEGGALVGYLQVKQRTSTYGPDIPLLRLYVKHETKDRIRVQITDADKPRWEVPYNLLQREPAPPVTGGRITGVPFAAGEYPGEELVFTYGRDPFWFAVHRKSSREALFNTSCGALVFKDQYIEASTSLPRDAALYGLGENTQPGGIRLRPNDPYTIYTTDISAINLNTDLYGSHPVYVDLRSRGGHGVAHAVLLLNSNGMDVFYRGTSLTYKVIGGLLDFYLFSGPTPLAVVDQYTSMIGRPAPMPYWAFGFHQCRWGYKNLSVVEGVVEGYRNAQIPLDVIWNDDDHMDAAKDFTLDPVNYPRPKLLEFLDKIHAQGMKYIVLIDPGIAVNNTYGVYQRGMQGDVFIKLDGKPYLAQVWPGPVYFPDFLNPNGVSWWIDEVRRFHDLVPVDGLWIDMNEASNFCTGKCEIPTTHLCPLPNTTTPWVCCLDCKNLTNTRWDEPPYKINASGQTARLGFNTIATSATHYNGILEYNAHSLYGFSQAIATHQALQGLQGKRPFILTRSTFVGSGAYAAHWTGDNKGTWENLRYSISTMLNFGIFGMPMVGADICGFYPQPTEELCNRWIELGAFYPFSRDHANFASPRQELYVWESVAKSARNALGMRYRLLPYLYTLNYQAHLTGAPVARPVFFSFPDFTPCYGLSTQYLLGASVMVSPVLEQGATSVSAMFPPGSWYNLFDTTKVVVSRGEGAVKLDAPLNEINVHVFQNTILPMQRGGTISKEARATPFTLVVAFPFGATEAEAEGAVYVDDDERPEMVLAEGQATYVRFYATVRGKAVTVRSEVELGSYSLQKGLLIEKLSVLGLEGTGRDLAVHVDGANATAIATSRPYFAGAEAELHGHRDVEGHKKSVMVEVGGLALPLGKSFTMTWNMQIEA

Prunus dulcis [7] = assay: Percent inhibition against Beta Glucosidase from Almonds at 1 mM
Prunus dulcis [8] = assay: Inhibition against Beta Glucosidase from Almonds at 1 mM; (ni=no inhibition)
[9] = biological target: Beta-glucosidase A (Caldicellulosiruptor saccharolyticus) (UniProt P10482); assay: Percent inhibition against Beta Glucosidase from Caldocellum saccharolyticum at 1 mM
[10] = biological target: Beta-glucosidase A (Caldicellulosiruptor saccharolyticus) (UniProt P10482); assay: Inhibition against Beta Glucosidase from Caldocellum saccharolyticum at 1 mM; (ni=no inhibition)
[11] = biological target: T1, Glucoamylase 1 (Rhizopus oryzae); assay: Percent inhibition against Amyloglucosidase from Rhizopus mold at 1 mM
[12] = biological target: Glucoamylase (Aspergillus niger) (UniProt P69328); assay: Percent inhibition against Amyloglucosidase from Aspergillus niger at 1 mM concentration
[13] = Inhibitory activity against Beta Glucosidase from Almonds; design: species or system Prunus dulcis

Sequence of Beta-glucosidase A (Caldicellulosiruptor saccharolyticus) (P10482 whole entry): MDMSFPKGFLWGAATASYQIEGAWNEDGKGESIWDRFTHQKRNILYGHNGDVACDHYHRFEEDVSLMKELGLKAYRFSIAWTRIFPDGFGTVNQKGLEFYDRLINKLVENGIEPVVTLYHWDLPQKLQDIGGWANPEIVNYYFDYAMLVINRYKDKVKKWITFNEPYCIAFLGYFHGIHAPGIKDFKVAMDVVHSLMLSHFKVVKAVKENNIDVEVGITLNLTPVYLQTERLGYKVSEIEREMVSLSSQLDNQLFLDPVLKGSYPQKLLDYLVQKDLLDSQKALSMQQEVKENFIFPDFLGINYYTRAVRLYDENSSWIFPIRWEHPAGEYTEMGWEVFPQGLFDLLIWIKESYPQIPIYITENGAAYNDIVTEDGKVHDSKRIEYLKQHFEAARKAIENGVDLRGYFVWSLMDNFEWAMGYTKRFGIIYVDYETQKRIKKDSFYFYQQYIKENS
Sequence of Glucoamylase (Aspergillus niger) (P69328 whole entry): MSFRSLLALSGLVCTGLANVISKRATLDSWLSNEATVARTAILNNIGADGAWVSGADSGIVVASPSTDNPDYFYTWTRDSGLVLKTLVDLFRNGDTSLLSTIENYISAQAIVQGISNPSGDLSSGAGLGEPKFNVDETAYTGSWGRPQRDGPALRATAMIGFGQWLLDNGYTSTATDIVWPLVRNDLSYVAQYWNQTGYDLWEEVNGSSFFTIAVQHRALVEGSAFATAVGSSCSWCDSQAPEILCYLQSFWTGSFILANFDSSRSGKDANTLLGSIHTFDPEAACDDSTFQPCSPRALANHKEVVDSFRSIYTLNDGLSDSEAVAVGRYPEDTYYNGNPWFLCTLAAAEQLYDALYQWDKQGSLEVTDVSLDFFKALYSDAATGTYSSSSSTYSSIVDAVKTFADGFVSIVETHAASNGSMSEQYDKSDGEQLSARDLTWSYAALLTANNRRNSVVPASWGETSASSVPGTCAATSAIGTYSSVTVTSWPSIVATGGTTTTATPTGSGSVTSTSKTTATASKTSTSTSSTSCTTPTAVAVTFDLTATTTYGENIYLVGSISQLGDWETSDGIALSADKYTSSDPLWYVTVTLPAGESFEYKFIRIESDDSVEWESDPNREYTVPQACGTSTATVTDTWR

Row | inhibition [1] | inhibition [2] | inhibition [3] | inhibition [4] | IC50 [5] | inhibition [6] | inhibition (Prunus dulcis [7]) | inhibition (Prunus dulcis [8]) | inhibition [9] | inhibition [10] | inhibition [11] | inhibition [12] | Ki [13] | Structure (SMILES)
1 | inactive | inactive | inactive | inactive | – | inactive | – | inactive | 83% | – | – | – | – | CCCCCCCCN(CCCCCCCC)C1C=CC(O)C(O)C1O (racemic)
2 | inactive | inactive | inactive | inactive | – | inactive | 36% | – | – | inactive | – | – | – | OC1C=CC(N(CCc2ccccc2)CCc2ccccc2)C(O)C1O (racemic)
3 | inactive | inactive | inactive | inactive | – | inactive | – | inactive | – | inactive | – | – | – | COc1cc(O)c(CNC2C=CC(O)C(O)C2O)c(Br)c1 (single isomer, unassigned)
4 | inactive | inactive | inactive | inactive | – | inactive | – | inactive | – | inactive | – | – | – | NC1C=CC(O)C(O)C1O (single isomer, unassigned; (-))
5 | – | inactive | inactive | – | – | inactive | 51% | – | – | inactive | 72% | 63% | – | COc1ccc(CNC2C=CC(O)C(O)C2O)cc1 (stereo in doubt)
6 | inactive | inactive | inactive | inactive | – | inactive | 56% | – | – | inactive | – | – | – | OC1C=CC(NCc2ccc(-c3ccccc3)cc2)C(O)C1O (stereo in doubt)
7 | – | inactive | inactive | – | – | inactive | 51% | – | – | inactive | 72% | 45% | – | OC1C=CC(NCc2ccc(Cl)cc2)C(O)C1O (stereo in doubt)
8 | inactive | inactive | inactive | inactive | – | inactive | – | inactive | – | inactive | – | – | – | OC1C=CC(NCc2ccc(Oc3ccccc3)cc2)C(O)C1O (stereo in doubt)
9 | – | inactive | inactive | – | – | inactive | 51% | – | – | inactive | 72% | 63% | – | OC1C=CC(NCc2ccccc2)C(O)C1O (stereo in doubt)
10 | – | inactive | inactive | – | – | inactive | 26% | – | – | inactive | 85% | 94% | – | Oc1ccc(CNC2C=CC(O)C(O)C2O)cc1 (stereo in doubt)
11 | – | inactive | inactive | – | – | inactive | – | inactive | – | inactive | 41% | 42% | – | Oc1ccccc1CNC1C=CC(O)C(O)C1O (stereo in doubt)
12 | – | – | – | – | 32 µM | – | – | – | – | – | – | – | 10 µM | OC1C=CC(NCc2ccccc2)C(O)C1O (stereo in doubt; 4e)
13 | – | – | – | – | 72 µM | – | – | – | – | – | – | – | – | Oc1ccc(CNC2C=CC(O)C(O)C2O)cc1 (stereo in doubt; 4f)
14 | – | – | – | – | 52 µM | – | – | – | – | – | – | – | 25 µM | COc1ccc(CNC2C=CC(O)C(O)C2O)cc1 (stereo in doubt; 4g)
15 | inactive | inactive | inactive | inactive | – | inactive | 96% | – | 84% | – | – | – | – | OC1C=CC(NCc2ccc(Cl)cc2)C(O)C1O (stereo in doubt; 4h)
16 | inactive | inactive | inactive | inactive | – | inactive | 97% | – | 94% | – | – | – | – | OC1C=CC(NCc2ccc(-c3ccccc3)cc2)C(O)C1O (stereo in doubt; 4i)
17 | inactive | inactive | inactive | inactive | – | inactive | 97% | – | 71% | – | – | – | – | OC1C=CC(NCc2ccc(Oc3ccccc3)cc2)C(O)C1O (stereo in doubt; 4j)
18 | inactive | inactive | inactive | inactive | – | inactive | – | inactive | 43% | – | – | – | – | COc1cc(O)c(CNC2C=CC(O)C(O)C2O)c(Br)c1 (stereo in doubt; 4l)
19 | inactive | inactive | inactive | inactive | – | inactive | – | inactive | – | inactive | – | – | – | NC1C=CC(O)C(O)C1O (stereo in doubt; (+)-3)

Row | Structure (SMILES) | inhibition [1] | inhibition [2] | inhibition [3] | inhibition [4] | IC50 [5] | inhibition [6] | inhibition (Prunus dulcis [7]) | inhibition (Prunus dulcis [8]) | inhibition [9] | inhibition [10] | inhibition [11] | inhibition [12] | Ki [13]
20 | OC1C=CC(NCCc2ccccc2)C(O)C1O (racemic) | inactive | inactive | inactive | inactive | 32 µM | inactive | 86% | – | – | – | – | – | –
21 | CCCCCCNC1C=CC(O)C(O)C1O (racemic) | inactive | inactive | inactive | inactive | 32 µM | inactive | 92% | – | – | – | – | – | –
22 | CCCN(CCC)C1C=CC(O)C(O)C1O (racemic) | inactive | inactive | inactive | inactive | – | inactive | 36% | – | – | inactive | – | – | –
